Measurements from patent US20090076012A1, “Modulation of pathogenicity” (priority 2002, published 2009).
pIC50: −log10 of the molar value.

system: bioluminescent sensor strain Escherichia coli MT102 (pSB403); test: Biosensor assay: quorum sensing inhibition, bioluminescence of the sensor strain; assay type: cell-based; details: Escherichia coli, 4 h, 3oxo-C6-HSL 100 nM; bioluminescence after 4 hours at 30° C.
Protocol: Quorum sensing inhibition of the compounds was investigated with the aid of the bioluminescent sensor strain Escherichia coli MT102 (pSB403) (Winson et al., FEMS Microbiol. Lett. 163:185-92, 1998). Plasmid pSB403 contains the Photobacterium fischeri luxR gene together with the […] promoter region as a transcriptional fusion to the bioluminescence genes luxCDABE of Photorhabdus luminescence.
Inhibitory studies were conducted in a microtitre dish assay as follows: the E. coli sensor strain grown over night in LB medium (Sambrook et al., Molecular Cloning: A Laboratory Manual. 2nd Edn. Cold Spring Harbor Laboratory, New York, 1989) was diluted 1:4 and grown for another 1 hour at 30° C. After addition of 3oxo-C6-HSL (final concentration 100 nM) 100 μl of an exponential culture suspension were filled in the wells of a FluoroNunc Polysorp microtitre dish. The test compounds were added to the culture in different concentrations and bioluminescence was measured after 4 hours of incubation at 30° C. with a Lamda Fluoro 320 Plus reader (Bio-Tek Instruments). Inhibitor-mediated reduction of light emission was correlated with the value obtained without addition of the test compounds. IC50 values (concentration of inhibitor required for 50% inhibition of the signal compared to the signal without inhibitor) were determined by using a fitting function after drawing a graph of the activities of eight different inhibitor concentrations.

| SMILES | pIC50 |
| --- | --- |
| Cn1nccc1NC(=O)c1cnc(Cl)nc1C(F)(F)F [Compound 1, 2-Chloro-4-trifluoromethyl-pyrimidine-5-carboxylic acid (2-methyl-2H-pyrazol-3-yl)-amide] | 4.30 to 6.00 |
| COc1ccc(NC(=O)c2sccc2Br)cn1 [Compound 2, 3-Bromo-thiophene-2-carboxylic acid (6-methoxy-pyridin-3-yl)-amide] | 4.30 to 6.00 |
| O=C(Nc1cccnc1)c1cc(Cl)sc1Cl [Compound 3, 2,5-Dichloro-thio-phene-3-carboxylic acid pyridin-3-ylamide] | 4.30 to 6.00 |
| COC(=O)c1ccsc1NC(=O)c1cnc(Cl)nc1C(F)(F)F [Compound 4, 2-[(2-Chloro-4-trifluoro-methyl-pyrimidine-5-carbonyl)-amino]-thiophene-3-carboxylic acid methyl ester] | < 4.00 |
| COC(=O)c1scc(C)c1NC(=O)c1cccs1 [Compound 5, 4-Methyl-3-[(thiophene-2-carbonyl)-amino]-thiophene-2-carboxylic acid methyl ester] | < 4.00 |
| O=C(Nc1cccc(C(F)(F)F)c1)c1cnc(Cl)nc1C(F)(F)F [Compound 6, 2-Chloro-4-trifluoromethyl-pyrimidine-5-carboxylic acid (3-trifluoromethyl-phenyl)-amide] | 4.00 to 4.30 |
| O=C(Nc1ccc(OC(F)(F)F)cc1)c1cnc(Cl)nc1C(F)(F)F [Compound 7, 2-Chloro-4-trifluoromethyl-pyrimidine-5-carboxylic acid (4-trifluoromethoxy-phenyl)-amide] | 4.30 to 6.00 |
| COc1ccc(NC(=O)c2cccnc2SC)cn1 [Compound 8, N-(6-Methoxy-pyridin-3-yl)-2-methylsulfanyl-nicotinamide] | < 4.00 |
| COc1ccc(NC(=O)c2cncc(Br)c2)cn1 [Compound 9, 5-Bromo-N-(6-methoxy-pyridin-3-yl)-nicotinamide] | < 4.00 |
| O=C(Nc1ccc(Br)cn1)c1cc(Cl)nc(Cl)c1 [Compound 10] | < 4.00 |
| Cc1cc(C(=O)Nc2cccnc2)cc(Cl)n1 [Compound 11, 2-Chloro-6-methyl-N-pyridin-3-yl-iso-nicotinamide] | 4.30 to 6.00 |
| CCn1nc(C)c(Br)c1C(=O)Nc1ccnn1C [Compound 12, 4-Bromo-2-ethyl-5-methyl-2H-pyrazole-3-carboxylic acid (2-methyl-2H-pyrazol-3-yl)-aide] | 4.30 to 6.00 |
| Cc1cc(C(=O)Nc2ccnn2C)n(C(C)(C)C)n1 [Compound 13, 2-tert-Butyl-5-methyl-2H-pyrazole-3-carboxylic acid (2-methyl-2H-pyrazol-3-yl)-amide] | < 4.00 |
| Cn1nc(-c2ccc(Cl)cc2)cc1NC(=O)c1cccs1 [Compound 14, Thiophene-2-carboxylic acid [5-(4-chloro-phenyl)-2-methyl-2H-pyrazol-3-yl]-amide] | 4.30 to 6.00 |
| Cn1nc(-c2cccs2)cc1NC(=O)c1cccc(Cl)c1 [Compound 15, 3-Chloro-N-(2-methyl-5-thiophen-2-yl-2H-pyrazol-3-yl)-benzamide] | 4.30 to 6.00 |
| Cn1nc(-c2ccc(Cl)cc2)cc1NC(=O)CCCCCBr [Compound 16, 6-Bromo-hexanoic acid [5-(4chloro-phenyl)-2-methyl-2H-pyrazol-3-yl]-amide] | 4.30 to 6.00 |
| CCCCCCC(=O)Nc1cc(-c2ccccc2)nn1C [Compound 17, Heptanoic acid (2-methyl-5-phenyl-2H-pyrazol-3-yl)-amide] | 4.30 to 6.00 |
| Cn1nc(-c2ccccc2)cc1NC(=O)CCCCCBr [Compound 18, 6-Bromo-hexanoic acid (2-methyl-5-phenyl-2H-pyrazol-3-yl)-amide] | 4.30 to 6.00 |
| CCCCCCC(=O)Nc1cc(-c2cccs2)nn1C [Compound 19, Heptanoic acid (2-methyl-5-thiophen-2-yl-2H-pyrazol-3-yl)-amide] | 4.30 to 6.00 |
| Cn1nc(-c2cccs2)cc1NC(=O)CCCCCBr [Compound 20, 6-Bromo-hexanoic acid (2-methyl-5-thiophen-2-yl-2H-pyrazol-3-yl)-amide] | 4.30 to 6.00 |
| CCCCCCC(=O)Nc1c(Br)cnn1C [Compound 21] | 4.30 to 6.00 |
| Cn1nccc1NC(=O)CCCCCBr [Compound 22, 6-Bromo-hexanoic acid (2-methyl-2H-pyrazole-3-yl)-amide] | 4.30 to 6.00 |
| Cn1ncc(Br)c1NC(=O)CCCCCBr [Compound 23, 6-Bromo-hexanoic acid (4-bromo-2-methyl-2H-pyrazol-3-yl)-amide] | 4.30 to 6.00 |

| SMILES | pIC50 |
| --- | --- |
| CCCCCCC(=O)Nc1ccnn1C [Compound 24, Heptanoic acid (2-methyl-2H-pyrazol-3-yl)-amide] | 4.30 to 6.00 |
| O=C(NNc1nccc(C(F)(F)F)n1)c1cccs1 [Compound 25, Thiophene-2carboxylic acid N′-(4-trifluoromethyl-pyrimidin-2-yl)-hydrazide] | 4.30 to 6.00 |
| Cc1cc(C(=O)NNc2nccc(C(F)(F)F)n2)n(C)n1 [Compound 26, 2,5-Dimethyl-2H-pyrazole-3-carboxylic acid N′-(4-trifluoromethyl-pyrimidin-2-yl)-hydrazide] | 4.30 to 6.00 |
| Cc1nc(C(F)(F)F)ccc1C(=O)NNC(=O)c1cccs1 [Compound 27, 2-Methyl-6-trifluoromethyl-nicotinic acid N′-(thiophene-2-carbonyl)-hydrazide] | 4.30 to 6.00 |
| Cc1csc(C(=O)NNC(=O)c2ccc(C(F)(F)F)cc2)c1 [Compound 28, 4-Trifluoromethyl-benzoic acid N′-(4-methyl-thiophene-2-carbonyl)-hydrazide] | 4.00 to 4.30 |
| O=C(NNC(=O)c1cccs1)c1ccc(OC(F)(F)F)cc1 [Compound 29, 4-Trifluoromethoxy-benzoic acid N′-(thiophene-2-carbonyl)-hydrazide] | < 4.00 |
| COc1cscc1C(=O)NNC(=O)c1ccc(Cl)cc1 [Compound 30, 4-Chloro-benzoic acid N′-(4-methoxy-thiophene-3-carbonyl)-hydrazide] | < 4.00 |
| O=C(NNC(=O)c1cccs1)c1cccc(Cl)c1 [Compound 31, 3-Chloro-benzoic acid N′-(thiophene-2-carbonyl)-hydrazide] | 4.00 to 4.30 |
| Cc1c(C(=O)NNC(=O)c2cccs2)[n+]([O-])c2ccccc2[n+]1[O-] [Compound 32, N′-(3-Methyl-1,4dioxy-quinoxaline-2-carbonyl)-thiophene-2-carboxylic acid hydrazide] | 4.00 to 4.30 |
| O=C(NNC(=O)c1sccc1Cl)c1cnn(-c2ccccc2)c1C(F)(F)F [Compound 33, 3-Chloro-thiophene-2-carboxylic acid N′-(1-phenyl-5-trifluoromethyl-1H-pyrazole-4-carbonyl)-hydrazide] | < 4.00 |
| O=C(NNC(=O)c1cnn(-c2ccc(Cl)cc2)c1C(F)(F)F)c1cccs1 [Compound 34, Thio-phene-2-carboxylic acid N′-[1-(4-chloro-phenyl)-5-trifluoromethyl-1H-pyrazole-4-carbonyl]-hydrazide] | 4.00 to 4.30 |
| O=C(NNC(=O)c1cccs1)c1ccco1 [Compound 35, Furan-2-carboxylic acid N′-(thiophene-2-carbonyl)-hydrazide] | 4.00 to 4.30 |
| Cc1csc(C(=O)NNC(=O)c2ccco2)c1Cl [Compound 36, Furan-2-carboxylic acid N′-(3-chloro-4-methyl-thiophene-2-carbonyl)-hydrazide] | 4.00 to 4.30 |
| CCOc1ccsc1C(=O)NNC(=O)c1ccco1 [Compound 37, Furan-2-carboxylic acid N′-(3-ethoxy-thiophene-2-carbonyl)-hydrazide] | 4.00 to 4.30 |
| COc1c(C(=O)NNC(=O)c2ccco2)csc1Cl [Compound 38, Furan-2-carboxylic acid N′-(5-chloro-4-methoxy-thiophene-3-carbonyl)-hydrazide] | 4.30 to 6.00 |
| O=C(NNC(=O)c1sccc1Br)c1ccco1 [Compound 39, Furan-2-carboxylic acid N′-(3-bromo-thiophene-2-carbonyl)-hydrazide] | 4.30 to 6.00 |
| O=C(NNC(=O)c1cc(Cl)sc1Cl)c1ccco1 [Compound 40, Furan-2-carboxylic acid N′-(2,5-dichloro-thiophene-3-carbonyl)-hydrazide] | 4.30 to 6.00 |
| O=C(NNC(=O)c1sc2ccccc2c1Cl)c1ccco1 [Compound 41, Furan-2-carboxylic acid N′-(3-chloro-benzo[b]thiophene-2-carbonyl)-hydrazide] | 4.30 to 6.00 |
| COc1c(C(=O)NNC(=O)c2cccs2)csc1Br [Compound 42, Thiophene-2-carboxylic acid N′-(5-bromo-4-methoxy-thiophene-3-carbonyl)-hydrazide] | 4.30 to 6.00 |
| Cc1csc(C(=O)NNC(=O)c2cccs2)c1Cl [Compound 43, Thiophene-2-carboxylic acid N′-(3-chloro-4-methyl-thiophene-2-carbonyl)-hydrazide] | 4.30 to 6.00 |
| CCOc1ccsc1C(=O)NNC(=O)c1sccc1Cl [Compound 44, 3-Chloro-thiophene-2-carboxylic acid N′-(3-ethoxy-thiophene-2-carbonyl)-hydrazide] | < 4.00 |
| CCOc1ccsc1C(=O)NNC(=O)c1cccs1 [Compound 45, Thiophene-2-carboxylic acid N′-(3-ethoxy-thiophene-2-carbonyl)-hydrazide] | 4.30 to 6.00 |
| O=C(NNC(=O)c1cccs1)c1cccs1 [Compound 46, Thiophene-2-carboxylic acid N′-(thiophene-2-carbonyl)-hydrazide] | 4.00 to 4.30 |
